# From patent US20020052491A1, “Method for the production of 2-chloro-2' -deoxyadenosine (cladribine) and its 3,5-di-O-p-toluoyl derivative” (priority 1999, published 2002)
# Tests used:
# [1] = system: Epstein Barr B lymphoblastoid cell lines; test: in vitro sensitivity, Epstein Barr B lymphoblastoid cell lines; type: cell-based; conditions: 50% growth inhibition, no source mark printed, read-out: IC50 (nmol/L)**
# Source text: (§1) The in vitro effect of cladribine (2-CdA) has been studied on a number of cell lines, showing different degrees of sensitivity, represented by the IC50 value (concentration required to inhibit 50% of growth) on a case-by-case basis.
# [2] = system: DAUDI cell line; test: in vitro sensitivity, DAUDI cell line; type: cell-based; conditions: Homo sapiens, 50% growth inhibition, Data Bio Sidus, read-out: IC50 (nmol/L)**
# Source text: as §1
# [3] = system: Acute lymphoblastic leukemia; conditions: drug concentration required to inhibit 50% of growth, read-out: IC50 (nmol/L)**; cited from earlier work
# [4] = system: Acute myelogenous leukemia; conditions: 50% growth inhibition, read-out: IC50 (nmol/L)**; cited from earlier work
# [5] = system: Chronic lymphocytic leukemia; conditions: 50% growth inhibition, read-out: IC50 (nmol/L)**; cited from earlier work
# [6] = system: Hairy cell leukemia; conditions: 50% growth inhibition, read-out: IC50 (nmol/L)**; cited from earlier work
# [7] = system: Multiple myeloma cells; conditions: cited from earlier work
# [8] = system: Non-Hodgkin's lymphoma; conditions: 50% growth inhibition, read-out: IC50 (nmol/L)**; cited from earlier work
# [9] = system: T cells; conditions: 50% growth inhibition, read-out: IC50 (nmol/L)**; cited from earlier work
# [10] = system: B cells; conditions: 50% growth inhibition, read-out: IC50 (nmol/L)**; cited from earlier work
# [11] = system: Normal bone marrow; conditions: cited from earlier work
# [12] = system: myeloid cells; conditions: cited from earlier work
# [13] = system: lymphoblastoid leukemia cells; conditions: 5 nmol/L; cited from earlier work
# [14] = system: cell lines of bone tumors; conditions: in vitro; cited from earlier work
# [15] = system: human melanoma cell lines; conditions: some human melanoma cell lines; cited from earlier work
# [16] = system: neuroblastoma cell line; conditions: cited from earlier work
# [17] = system: granulocyte-macrophage colony forming units and erythrocyte burst forming units; conditions: more immature progenitors (granulocyte-macrophage colony forming units and erythrocyte burst forming units); approximately; cited from earlier work
# [18] = system: Mature erythroid colony forming units (mBFU-E); conditions: cited from earlier work
# [19] = system: erythroid colony forming cells (CFU-E); conditions: cited from earlier work
# [20] = system: T lymphocyte colony forming cells; conditions: cited from earlier work
# [21] = system: Peripheral lymphocytes; conditions: cited from earlier work
# [22] = system: myeloid progenitor cell; conditions: dose-dependent basis; cited from earlier work
# [23] = system: Erythroid progenitor cells; conditions: decreases as maturation state rises; cited from earlier work
# [24] = system: dividing and non-dividing cells; conditions: cited from earlier work
# [25] = H-9 proton; cited from earlier work
smiles,measurement,setting,value
"Nc1nc(Cl)nc2c1ncn2[C@H]1C[C@H](O)[C@@H](CO)O1 [Cladribine, 2-chloro-2′-deoxyadenosine]",IC50,[1],200 nmol/L
same,IC50,[2],210 nmol/L
same,IC50,[3],34 nmol/L
same,IC50,[4],20 nmol/L
same,IC50,[5],39 nmol/L
same,IC50,[6],31 nmol/L
same,IC50,"[7]; Multiple myeloma, 50% growth inhibition, read-out: IC50 (nmol/L)**",1750 nmol/L
same,activity on multiple myeloma cells,[7]; in vitro,low activity
same,IC50,[8],87 nmol/L
same,IC50,[9],3 to 338 nmol/L
same,IC50,[10],6 to 67 nmol/L
same,granulocyte and macrophage colony formation,"[11]; 5 nmol/L, normal bone marrow",no effect
same,IC50,"[11]; Normal bone marrow, 50% growth inhibition, read-out: IC50 (nmol/L)**",15 nmol/L
same,IC50,[12],5 to 70 nM
same,thymidine uptake,[13],inhibits
same,activity on cell lines of bone tumors,[14],low activity
same,IC37,[15],12 to 22 nmol/L
same,IC50,[16],60 nM
same,IC50,[17],16 to 20 nM
same,IC50,[18],38 nM
same,IC50,[19],56 nM
same,concentration needed for a complete inhibition of lymphoid colony formation,[20]; complete inhibition,1280 nmol/L
same,T lymphocyte colony forming cells,[20]; dose-dependent basis,inhibits
same,viability of peripheral lymphocytes,"[21]; 100 nmol/l during 24 hours, followed by washing",retain viability
same,cells die,[21]; seven-day incubation with 8 nmol/L,60%
same,myeloid progenitor cell growth,[22],inhibits
same,sensitivity of erythroid progenitor cells,[23],dose-dependent sensitivity
same,activity in dividing and non-dividing cells,[24],active
Nc1ncnc2nc[nH]c12 [adenine],pKa,[25],9.80
